Values of other authors, collected in patent publication US20170224835A1, “Antibody Drug Conjugates” (priority 2015, published 2017).
Read-outs that look alike come from different tables or passages of the source.

What was measured:
[1] = in vitro

## COc1cccc2c1C(=O)c1c(O)c3c(c(O)c1C2=O)C[C@@](O)(C(=O)CO)C[C@@H]3O[C@H]1C[C@H](N2CCO[C@H](OC)C2)[C@H](O)[C@H](C)O1 [Nemorubicin, (8S,10S)-6,8,11-trihydroxy-10-((2R,4S,5S,6S)-5-hydroxy-4-((S)-2-methoxymorpholino)-6-methyltetrahydro-2H-pyran-2-yloxy)-8-(2-hydroxyacetyl)-1-methoxy-7,8,9,10-tetrahydrotetracene-5,12-dione]
[1]
  cytotoxicity / cell killing compared with other anthracyclines: more potent cell killing property

## COc1cccc2c1C(=O)c1c(O)c3c(c(O)c1C2=O)C[C@@](O)(C(=O)CO)C[C@@H]3O[C@H]1C[C@H]2[C@H](O[C@@H]3[C@@H](OC)OCCN32)[C@H](C)O1 [PNU-159682, 3′-deamino-3″,4′-anhydro-[2″(S)-methoxy-3″(R)-oxy-4″-morpholinyl]doxorubicin]
In vivo tumor models
  efficacy in in vivo tumor models: effective
[1]
  cytotoxicity / cell killing compared with other anthracyclines: significantly more cytotoxic than Nemorubicin
[1]; listed as PNU (159682)
  cytotoxicity / cell killing compared with other anthracyclines: more cytotoxic than nemorubicin and doxorubicin
